Reference: patent publication US6291247A, “Methods of screening for factors that disrupt neurotrophin conformation and reduce neurotrophin biological activity” (priority 1996, dated 2001)
Bridges are numbered along the chain shown (N, C = ends).

Key:
[1] = test system: NGF dimer; assay: NGF dimer stability by non-reducing gel electrophoresis; parameters: species or system mouse
Procedure: For conformation and dimer integrity studies, 0.1 nM ^125 I-NGF was incubated in the presence or absence of Zn^2+ in HKR buffer for 2 hours at 4° C. in a total volume of 0.1 ml. For crosslinking NGF […], 0.4 mM BS^3 was added to the mixture and incubated for 30 minutes at 25° C. The reaction was quenched with reducing SDS PAGE sample buffer, electrophoresed using a linear 15% acrylamide gel and autoradiographed. To assess the dimeric nature of NGF in the presence of Zn^2+, ^125 I-NGF was electrophoresed in a non-reducing SDS PAGE system as described, autoradiographed, and the labelled proteins excised from the gels and counted. For CD studies, NGF (50 μg/ml) was dissolved in 50 mM Tris-HCl buffer and spectra recorded using a computer controlled Jasco J-600 spectropolarimeter. Samples were acquired in the absence or presence of Zn^2+ (100 μM) at 22° C. in a 2 mm quartz cell averaged over eight scans. Modification of His residues by DEPC was carried out as previously described, where the molar excess of DEPC added and the extent of reaction was determined by evaluating the loss of binding activity of the modified product.

[2] = test system: p75; assay: Affinity cross-linking of 125I-NGF to p75 on PC12 cells; format: binding, rat; settings: for Inhibition of p75 Interaction: 0.1 nM 125I-NGF, PC12 cells
Procedure: The ability of the peptides under study to interfere with binding of NGF to NGF receptors was evaluated by analysis of inhibition of the chemical cross-linking of ^251 I-NGF to the common neurotrophin receptor p75 (Chao, J. Neurobiol. 25:1373-1385 (1994)) and the specific NGF receptor TrkA (Barbacid, J. Neurobiol. 25: 1386-1403 (1994)). Immunoprecipitation and polyacrylamide gel electrphoresis of cross linked receptors allowed identification of both receptors, as shown in FIG. 7A. […] At concentrations of 200 μM, neither R11(l) nor R11(m) were able to inhibit greater than 50% of the observed ^125 I-labelling.
The ability of the peptides derived from the 68-58/108-110 region of NGF to antagonize NGF interaction with the p75 and TrkA receptors was determined The peptides tested were bicyclic (BC) 68-58/108-110, cyclic (C) 68-58/108-110, and linear (L) 68-58/108-110, each of which are illustrated in FIGS. 2 and 5D
Receptor cross-linking studies were performed on PC12 rat pheochromocytoma cells (ATCC CRL 1721; Greene et al., Proc. Natl. Acad. Sci. USA 73: 2424-2432 (1976)) which were maintained in RPMI1640 (Gibco) supplemented with 10% fetal calf serum (Gibco). Cells were harvested by incubation and trituration in Ca^2+ and Mg^2+ free Gey's balanced salt solution, washed and suspended in 10 mM HEPES buffer (pH 7.35) containing 125 mM NaCl, 4.8 mM KCl, 1.3 mM CaCl2, […], 1.2 mM KH2 PO4, 1 g/L sucrose and 1 g/L bovine serum albumin (HEPES Krebs Ringer buffer, HKR buffer) at 10^6 cells/mL. Subsequent procedures were carried out at 4° C. unless otherwise noted.
For receptor crosslinking, ^125 I-NGF was prepared by the method of Sutter et al. (J. Biol. Chem. 254: 5972-5982 (1979)) from NGF isolated from mouse submaxillary gland (as described in Mobley et al., Biochemistry 15:1543 (1976)) obtained from Cedarlane.
[…] Control PC12 cells were incubated in HKR buffer in the presence of ^125 I-NGF only (no NGF peptide).
Receptor proteins were cross-linked with either 0.4 mM bis(sulfosuccinimidyl)suberate (BS^3, Pierce) for TrkA, or a combination of 2 mM […] (EDC) and 2 mM N-hydroxysulfosuccinimide (S-NHS) for p75^NTR as indicated. All cross-linking agents (from Pierce) were dissolved in water and added in 20 μL aliquots and the reaction allowed to proceed for 30 min at 25° C. On completion of the cross-linking reaction, the cells were washed three times in HKR buffer with BSA at 4° C. to remove excess free radiolabelled ligand and reagents. The cells were solubilized in 100 μL SDS sample buffer Samples were separated on a modified Laemmli discontinues acrylamide gel system (Laemmli, Nature 227:680 (1970)) using 4% SDS-PAGE stacking gel and a gradient urea polyacrylamide separating gel ranging from 4.5% acrylamide/18% urea to 7.5% acrylamide/48% urea. The gels were fixed and processed for autoradiography using -70° C. exposure with Kodak XAR film and manual processing (FIG. 7B).
For positive receptor identification, immunoprecipitation studies were performed. Samples of 10^7 cells in 1 mL HKR buffer were cross-linked under the conditions described above, washed in HKR buffer and solubilized in non-denaturing lysis buffer (1% NP40, 10% glycerol, 1 mM phenylmethylsulfonylfluoride, 10 μg/mL leupeptin and 0.5 mM o-vanadate in Tris-buffered saline) (Kaplan et al., Nature 350:1 158-160 (1991)). The solutions were clarified by centrifugation and immunoprecipitated with either mAb 192 (monoclonal antibody for p75; Cedarlane) or rabbit anti-TrkA, which had been raised against a COOH-terminal peptide of TrkA. The ^125 I-NGF cross-linked receptor-antibody complexes were isolated using 50 μL of a 50% solution of rabbit anti-mouse agarose (Sigma; for mAb 192) or protein A-Sepharose (Pharmcia; for anti-Trk) equilibrated in lysis buffer. Immunoprecipitates were washed three times in lysis buffer and the pellets denatured in SDS reducing sample buffer. […]

[3] = test system: DRG neurons; assay: Survival of chick DRG neurons at 24 hours; format: cell-based; settings: 500 μM

Row | Compound | Percentage of NGF migrating as a dimer in non-reducing gel electrophoresis [1] | Inhibition of p75 Interaction ([2]; 20 μM peptide) | Inhibition of p75 Interaction ([2]; 200 μM peptide, listed as BC) | Covalent attachment of 125I-NGF to receptor (p75) ([2]; 200 μM, result in words) | Survival of neurons at 24 hours [3]
1 | [Zn+2] [Zn^2+] | No change | – | – | – | –
2 | NH2 -Cys-Gly-Ser-Glu-Val-Pro-Asn-Ser-Ala-Arg-Cys-Cys-Val-Cys-OH (H-CGSEVPNSARCCVC-OH; disulfide 1-14, 11-12) [R11, bicyclic peptide of NGF residues 68-58/108-110, two disulfide bonds] | – | + (indicates less than 50% inhibition) | ++ (indicates greater than 50% inhibition) | effectively prevented the covalent attachment | not influenced
